Consider six compounds from US20260240851A1, “Treatment of Parkinson's Disease in a Patient Using a Glucocerebrosidase Activator” (BIAL - R&D Investments, S.A., priority 2023, published 2026).

Where two headings read alike, the source gives them in different places.

The conditions of series [1]: both, human, in vivo.
For series [2] the following is noted: both, human, in vivo. The source holds these as a separate data set.
Method: (§1) This was a Phase 1, non-randomized, open-label, 2-cohort, cross-over, DDI study in healthy male and female subjects.
(§2) In Cohort 1, a single oral dose 100 mg/25 mg levodopa-carbidopa (Sinemet®) IR was administered alone on Day 1.
The conditions of series [3]: both, human, in vivo. This is another data set of the same source.
Method: as §1
(§3) In Cohort 2, a single oral dose 100 mg/25 mg levodopa-benserazide (Madopar®) IR was administered alone on Day 1.
Series [4] in a line: clinical. As to conditions: both, human, in vivo, geometric mean t1/2.
Series [5] in a line: clinical. As to conditions: both, human, in vivo.
Method: as §1, §2
Series [6] in a line: clinical. As to conditions: both, human, in vivo. The source holds these as a separate data set.
Method: as §1, §3
Series [7] is described as follows: BIA 28-6156-105: safety and tolerability. As to conditions: 400 mg moxifloxacin.
Series [8] can be described thus: BIA 28-6156-105: continuous cardiac monitoring, concentration-QTc analysis. The conditions noted are these: 400 mg moxifloxacin, positive control.
Series [9] is described as follows: BIA 28-6156-107 DDI: effect of single-dose Compound A on single-dose PK of carbidopa-levodopa. As to conditions: both, human, in vivo, oral; for Tmax: Median Tmax, carbidopa.
Series [10] is described as follows: BIA 28-6156-110 DDI, metformin portion. The series is classed as in vivo, human. Here is the method: In Cohort 2, a single oral dose 500 mg metformin was administered alone on Day 1. From Day 2 to Day 7, a single daily dose of 60 mg Compound A was administered.
Series [11] is described as follows: BIA 28-6156-110 DDI, rosuvastatin portion. The series is classed as in vivo, human. Here is the method:
In Cohort 1, a single oral dose of 10 mg rosuvastatin was administered alone on Day 1. No drug was administered on Day 2. From Day 3 to Day 8, a single daily dose of 60 mg Compound A was administered.

For series [12] the following is noted: Parkinson's patients with a GBA-1 mutation; Peterschmitt et al., 2021; cited from earlier work.
The mark [13] stands for this setting: 500 mg metformin + Compound A (60 mg daily) vs metformin alone.
The mark [14] stands for this setting: 10 mg rosuvastatin + Compound A (60 mg daily) vs rosuvastatin alone.

With `N[C@@H](Cc1ccc(O)c(O)c1)C(=O)O` [Levodopa, levodopa], in [1], the “AUC0-inf ratio of geometric least squares means (point estimate)” value was 1.035, the “AUC0-last ratio of geometric least squares means (point estimate)” value is on record as 1.048, the “Cmax ratio of geometric least squares means (point estimate)” value is 1.061 and the “Median Tmax” value was 0.5 h. Also, in [2], the AUC(0-t) – broadly, the area under the concentration-time curve up to a stated or last time point – is 1534 ng·h/mL and the Tmax came out at 1.00 h. Further, the t1/2 in series [3] amounted to 2.26 h. Moreover, in “clinical [4]”, the half-life (usually the time needed for the level to fall by half in the phase considered) is 1.7 h. For the same compound, the half-life in “clinical [5]” was 1.69 h. Further, the Tmax in the series “clinical [6]” was found to be 0.77 h. This compound returned an AUC(0-t) in “clinical [6]” (AUC0-t) of 1940 ng·h/mL.
For the compound `COc1c(N2C[C@@H]3CCCN[C@@H]3C2)c(F)cc2c(=O)c(C(=O)O)cn(C3CC3)c12` [Moxifloxacin, moxifloxacin, reference compound], the “Grade 3 (severe) TEAE considered related” value in [7] is “hypersensitivity”. For the same compound, the “effect on ΔΔQTcF (concentration-QTc analysis)” value in [8] was “above 5 msec”.
In the case of `C[C@@](Cc1ccc(O)c(O)c1)(NN)C(=O)O` [carbidopa], in series [1], the “AUC0-last ratio of geometric least squares means (point estimate)” value is 0.909, the “Cmax ratio of geometric least squares means (point estimate)” value is 1.031, the “decrease of systemic exposure” value is given as “approximately 9%” and the “increase of maximal exposure” value is “approximately 3%”. Further, the Tmax in series [9] (carbidopa-levodopa alone) turned out to be 2.5 h. In series [9] (coadministered with Compound A), the Tmax came to 2 h. In series [9] (geometric mean t1/2, carbidopa, both treatment conditions), this compound gave a half-life of 2 to 2.3 h.
For `CN(C)C(=N)N=C(N)N` [metformin], in series [10] (setting [13]), the “AUC0-inf ratio of geometric least squares mean, estimate” value is listed as 0.940; the “AUC0-t ratio of geometric least squares mean, estimate” value was 0.938; the “Cmax ratio of geometric least squares mean, estimate” value was 0.950. Further, in [10] (single oral dose of metformin), the “effect of multiple oral doses of Compound A on metformin PK” value was “no effect”.
`CC(C)c1nc(N(C)S(C)(=O)=O)nc(-c2ccc(F)cc2)c1/C=C/[C@@H](O)C[C@@H](O)CC(=O)O` [rosuvastatin]: in [11] (setting [14]), the “AUC0-inf ratio of geometric least squares mean, estimate” value is 3.041; the “AUC0-t ratio of geometric least squares mean, estimate” value is listed as 3.437; the “Cmax ratio of geometric least squares mean, estimate” value is reported as 3.467. Further, in series [11] (with Compound A vs alone), the “increase of rosuvastatin PK” value is listed as “about 3 fold”; the “increased maximal exposure to rosuvastatin, Cmax” value was found to be 347%; the “increased systemic exposure to rosuvastatin, AUC0-inf” value is on record as 304%; the “increased systemic exposure to rosuvastatin, AUC0-t” value is 344%.
`CC(C)(NC(=O)O[C@@H]1CN2CCC1CC2)c1csc(-c2ccc(F)cc2)n1` [venglustat]: the “impact on slowing the progression of the condition” value in series [12] was “no impact on slowing the progression of the condition”.
